Columns and labels:
[1] = Pharmacokinetic test in rats; assay type: in vivo, Sprague-Dawley (SD) rats; conditions: male SD rats, intragastric administration of 10 mg/kg; for AUC(0-t) / Cmax / Tmax: Sprague-Dawley, rat, po, plasma; for AUC(0-t): read-out: area under the blood concentration-time curve AUC0-t; for Cmax: read-out: peak concentration Cmax; for Tmax: read-out: peak time of blood concentration tmax
Experimental: Pharmacokinetic Test in Rats
The pharmacokinetic study of the present invention was performed in rats. The pharmacokinetic behavior of the positive control INT-747 and a representative compound of the present invention, such as Example 14-β, was studied in rats, and their pharmacokinetic characteristics were evaluated.
(1) Three male Sprague-Dawley (SD) rats were used, which were supplied by Sippr-BK laboratory animal Co. Ltd. Animal Production License No. SOCK (Shanghai) 2008-0016.
(2) Then, 10 mg of the sample was weighed and added with 10 mL of 0.5% CMC-Na aqueous solution, the mixture was fully shaken to make a 1 mg/ml uniform solution, and the remaining liquid samples were used for quantitative analysis.
(3) Three male SD rats were intragastrically administered at 10 mg/kg with a volume of 10 mL/kg after fasting for one night.
(4) About 0.05 mL of underjaw intravenous blood was collected before and 0.5, 1.0, 2.0, 4.0, 6.0, 8.0, 24.0, 30.0 hours after administration, and then placed in a EDTA-K2 test tube. The blood was centrifuged at 6000 rpm for 5 minutes to isolate the plasma, which was stored at −80° C. The rats were feed 4 hours after administration.
(1) Instruments and Equipment: API 4000 triple quadrupole mass spectrometer, Applied Biosystems, USA; Shimadzu LC-20AD high performance liquid chromatography system, Shimadzu, Japan.
(2) Condition of chromatography: The chromatographic column was Phenomenex gemiu 5 um C18 50×4.6 mm; mobile phase was acetonitrile: 0.1% TFA aqueous solution (gradient elution); flow rate (ml/min) was 0.8 ml/min.

FXR receptor = target: T1, FXR receptor (Homo sapiens, UniProt Q96RI1); experiment: FXR receptor binding activity assay (TR-FRET; GST-FXR-LBD / SRC1 fragment); assay type: biochemical; conditions: FXR-LBD binding to SRC1 fragment, agonist rate
T1 construct: Prepared 2× GST-labeled FXR-LBD/anti-GST Eu mixture to the required volume, the concentration of GST-FXR-LBD was 6 nM; purchased Life Technology Invitrogen PV4835
T1 sequence (Q96RI1 262-486 limits assumed): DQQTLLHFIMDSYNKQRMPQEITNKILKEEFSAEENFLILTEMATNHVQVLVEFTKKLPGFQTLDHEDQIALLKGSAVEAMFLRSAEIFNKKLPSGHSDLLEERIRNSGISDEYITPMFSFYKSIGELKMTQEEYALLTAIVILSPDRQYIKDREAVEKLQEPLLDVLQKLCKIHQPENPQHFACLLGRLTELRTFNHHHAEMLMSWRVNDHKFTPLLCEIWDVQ
T1 sequence (Q15788 676-700 partner limits assumed): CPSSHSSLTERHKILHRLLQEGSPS
Description: FXR Receptor Binding Activity Assay (Time-Resolved Fluorescence Detection Method TR-FRET Method)
To test the effect of the present compounds on FXR receptor binding, we selected the commercial FXR receptor binding activity assay kit to test the effect of the compounds on FXR and its binding protein fragments (LBD structural domain binds to SRC1 fragment) (kit supplier: Life Technology Invitrogen Catalog: PV4835; cisbio Catalog: 610SAXLA and 61GSTKLA). Specific method was described in the kit instructions. The operation was as follows:
1. Prepared 2× GST-labeled FXR-LBD/anti-GST Eu mixture to the required volume, the concentration of GST-FXR-LBD was 6 nM, Eu was 50 nL/well.
2. Prepared 2× biotin-labeled SRC1/[…] (SA-APC) mixture to the required volume, the concentration of SRC1 was 1000 nM, and […] was 50 nL/well.
3. 2× GST-FXR/Eu and SRC1/SA-APC were mixed in a proportion of 1:1.
4. 20 μL of a mixture of GST-FXR/Eu and SRC1/SA-APC was added to a 384-well plate containing the compounds to be tested.
5. Centrifuged for 1 minute at 1000 rpm; incubated for 180 minutes at room temperature.
6. Time-resolved fluorescence detection: EnVision reader.
(1) the value at 665 nm divided by the value at 615 nm;
(2) calculating the agonist rate
Agonist rate=(X−Min)/(Max−Min)*100% • X represents the 665/615 value for each concentration; • Min represents the 665/615 value without adding compound; • Max represents the 665/615 value of the reference compound.

FXR = target: T2, FXR (Homo sapiens, UniProt Q96RI1); experiment: FXR reporter gene expression test (dual luciferase, FXR Gal4 reporter in HepG2 cells); assay type: cell-based; conditions: HepG2 cells transiently transfected with FXR Gal4 reporter, 18 hours
T2 sequence (Q96RI1 262-486 limits assumed): T1 sequence (Q96RI1 262-486 limits assumed)
Description: FXR Reporter Gene Expression Test
To analyze the effect of testing compounds on FXR-regulated gene expression, we used Promega's dual luciferase assay system (Promega #E1980) to detect the effect of the compounds on the FXR reporter gene in HepG2 hepatoma cell line (ATCC #HB-8065), which was transiently transfected with the FXR Gal4 reporter gene fragment. Specific experimental methods are as follows:
1. HepG2 Cell Culture and Maintenance
Cells were digested and cells with appropriate density were grown in 10 mL complete medium and then cultivated for 24 hours under 37° C., 5% CO2 humidity conditions.
2. Cell planting and transfection. Transfection reagent was Fugene HD (Promega#E231A)
(1) The transfection mixture was prepared according to the following table
(2) The mixture in the tube was vigorously mixed and incubated at room temperature for 15 minutes;
(3) The cells were digested in the culture dish and counted;
(4) The cell suspension was diluted to the desired volume of 600,000/mL (96-well plates 100 μL/well);
(5) The required volume of the transfection mixture was added to the cell suspension, followed by plating at 100 μL/well;
(6) Incubated for 24 hours under 37° C., 5% CO2 humidity conditions.
3. Treatment of the Compound
(1) 10 mM of mother liquor of the compound was prepared and then serially diluted 3 times with DMSO;
(2) 10 μL of compound was added to 90 μL of complete medium (10×);
(3) 5 μL of the solution of the compound (21×) was added to each well;
(4) Incubated for 18 hours under 37° C., 5% CO2 humidity conditions.
The firefly luciferase and the renilla luciferase signal (Promega #E1980) were detected by Promega's dual-luciferase assay system.
(2) Calculating the agonist rate
Agonist rate=(X−Min)/(Max−Min)*100% • X represents the F/R value of each concentration; • Min represents the F/R value without adding compound; • Max represents the F/R value of the reference compound.
(3) EC50 was calculated according to GraphPrism 5.0

| Structure (SMILES) | AUC(0-t) [1] | Cmax [1] | Tmax [1] | exposed quantity in the tested animals compared with positive control INT-747 [1] | EC50 (FXR receptor) | EC50 (FXR) |
| --- | --- | --- | --- | --- | --- | --- |
| CC[C@H]1[C@@H](O)C2C3CCC([C@H](C)CC4SC(=O)NC4=O)[C@@]3(C)CCC2[C@@]2(C)CC[C@@H](O)C[C@@H]12 (single isomer, unassigned) [Example 14-β] | 41.8 µg·h/mL | 7.58 µg/mL | 60 min | significantly better than that of the positive control INT-747 | 0.004 µM | 0.057 µM |
| CC[C@H]1[C@@H](O)[C@@H]2[C@H](CC[C@]3(C)[C@@H]([C@H](C)CCC(=O)O)CC[C@@H]23)[C@@]2(C)CC[C@@H](O)C[C@@H]12 [INT-747, reference compound] | 9.03 µg·h/mL | 4.41 µg/mL | 30 min |  |  |  |

Reference: patent US20180148470A1, “CHOLIC ACID DERIVATIVE, AND PREPARATION METHOD AND MEDICAL USE THEREOF” (Jiangsu Hansoh Pharmaceutical Group Co., Ltd., priority 2015, published 2018)
